Legend:
[1] = molecular target: T1, H723R-pendrin (Homo sapiens, UniProt O43511, H723R); assay: PTI assay (Cl−/HCO3− exchange activity); type: cell-based; settings: PANC-1 cells, BCECF pHi
T1 construct: expressed in transfected cells; host or cells: PANC-1
T1 sequence (O43511 1-780 H723R): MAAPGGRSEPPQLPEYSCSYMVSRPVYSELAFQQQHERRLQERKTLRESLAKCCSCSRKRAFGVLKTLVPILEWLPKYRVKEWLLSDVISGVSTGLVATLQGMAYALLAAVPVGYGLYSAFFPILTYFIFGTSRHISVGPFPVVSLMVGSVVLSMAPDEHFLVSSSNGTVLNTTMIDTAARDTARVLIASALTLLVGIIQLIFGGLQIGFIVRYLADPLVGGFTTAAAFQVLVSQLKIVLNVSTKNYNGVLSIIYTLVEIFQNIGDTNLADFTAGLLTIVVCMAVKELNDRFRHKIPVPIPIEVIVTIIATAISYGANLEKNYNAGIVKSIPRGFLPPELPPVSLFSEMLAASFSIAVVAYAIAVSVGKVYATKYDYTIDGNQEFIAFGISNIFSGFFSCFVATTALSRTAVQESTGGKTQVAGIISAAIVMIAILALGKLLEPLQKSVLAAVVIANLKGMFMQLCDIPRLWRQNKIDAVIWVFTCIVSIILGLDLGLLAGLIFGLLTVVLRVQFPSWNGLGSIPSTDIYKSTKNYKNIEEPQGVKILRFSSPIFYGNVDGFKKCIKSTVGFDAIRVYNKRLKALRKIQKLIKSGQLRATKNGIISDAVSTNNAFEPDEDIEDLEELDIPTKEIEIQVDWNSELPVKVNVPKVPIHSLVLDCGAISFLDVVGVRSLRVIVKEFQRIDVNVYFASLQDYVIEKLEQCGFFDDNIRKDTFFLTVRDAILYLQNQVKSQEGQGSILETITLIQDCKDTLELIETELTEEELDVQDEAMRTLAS
Description: Measurements of intracellular pH (pHi) in PANC-1 cells were performed with the pH-sensitive fluorescent probe 2′,7′-bis-(2-carboxyethyl)-5-(and-6)-carboxyfluorescein (BCECF) according to previously reported protocols. Briefly, cells were incubated with 2 μM BCECF acetoxy-methylester for 5 min and then perfused with a HCO3^−-buffered solution [containing 120 mM NaCl, 5 mM KCl, 1 mM MgCl2, 1 mM CaCl2, 10 mM d-glucose, 5 mM Hepes, and 25 mM NaHCO3 (pH 7.4)].
BCECF fluorescence was recorded at excitation wavelengths of 490 and 440 nm at a resolution of 2/s on a recording setup. The Cl^−/HCO3^− exchange activities were estimated from the initial rate of pHi increase as a result of Cl^− removal from the HCO3^−-containing buffer (25 mM HCO3^− with 5% CO2).
The pHi calibration was performed with standard pH solutions containing 150 mM KCl and 5 μM nigericin. The intrinsic buffer capacity (βi) was calculated by measuring ΔpHi in response to 5 to 40 mM NH4Cl pulses in Na^+-free solutions. Because the βi values were not substantially affected by transfection with the plasmids encoding for WT-pendrin or H723R-pendrin, the Cl^−/HCO3^− exchange activities were expressed as ΔpH unit/min without compensating for the buffer capacity.
It is indicated as exchange % with the following key: A=Exchange % greater than 50%; B=Exchange % less than 50%.

[2] = molecular target: T2, H723R-hPDS (Homo sapiens, UniProt O43511, H723R); assay: Surface biotinylation assay; type: cell-based; settings: Panc1 hPDS-H723R cells, 24 h treatment
T2 construct: expressed in transfected cells; host or cells: Panc1 (Panc1^hPDS-H723R)
T2 sequence (O43511 1-780 H723R): T1 sequence (O43511 1-780 H723R)
Source text: Surface biotinylation is a commonly used technique to specifically isolate plasma membrane proteins using a modified biotin in a form that is easy to bind with proteins. Sulfo-NHS-SS-biotin is a generally used reagent in surface biotinylation due to its impermeability and water solubility. In cool conditions, the extracellular domain of membrane proteins is covalently binding with the reactive biotin ester. These proteins are separated from the whole lysate via a biotin-streptavidin response. In this process, we can validate the increasing rate of the expression level of mutant pendrin in the plasma membrane.
Panc1^parental, Panc1^hPDS-WT and Panc1^hPDS-H723R cells were cultured in high glucose DMEM medium supplemented with 10% fetal bovine serum and 1% antibiotics. 24 hours after seeding in 6-well plates, cells were treated as indicated for 24 h. Cells were washed in PBS and incubated on ice with 0.3 mg/ml biotin in PBS. After 35 min, 1% BSA in PBS, D.W mixture (1:1) was added to cells, and cells were incubated for 10 min. Cells were washed and lysed in lysis buffer. The lysates were sonicated for 20 seconds, and not boiled. After centrifugated, the supernatants were collected and quantified via BCA analysis. The quantified supernatants were added to 10% avidin beads in PBS and incubated overnight at 4° C. After incubation, the below steps were repeated 4 times: i) centrifugation, ii) removing the supernatant, iii) washing with lysis buffer. After the last centrifugation and removing the supernatant, the sample buffer mixed with reducing buffer was added to biotin-avidin mixtures. The elution was accomplished in the 38° C. bioshaker for 40 min and the supernatant was collected. The supernatant was separated by SDS-PAGE and transferred to an Immobilon membrane. After incubation in 5% BSA solution to prevent nonspecific binding, the membrane was incubated with specific antibodies overnight. Then, the membrane was washed with TBST buffer and incubated with HRP-conjugated anti-rabbit or -mouse antibody for 1 hour. The ECL buffer and iBright were used for the visualization of protein bands. The respective protein band intensity was quantified by densitometric analysis using the NIH ImageJ program.
It is indicated as expression % with the following key: A=Expression % greater than 100%; B=Expression % greater than 50%, but less than 100%; C=Expression % less than 50%.

Row | SMILES | Cl−/HCO3− exchange, % of WT-hPDS ([1]; 3 uM) | Cl−/HCO3− exchange, % of WT-hPDS ([1]; 10 uM) | Surface expression % of H723R-hPDS relative to WT-hPDS (Glycosylated form pendrin) ([2]; 3 uM) | Surface expression % of H723R-hPDS relative to WT-hPDS (Glycosylated form pendrin) ([2]; 10 uM)
1 | NC1=C(c2cncc(-c3ccc(O)c(O)c3)n2)C(=O)CN1c1ccccc1Cl [Compound 9] | A (A=Exchange % greater than 50%) | A (A=Exchange % greater than 50%) | A (A=Expression % greater than 100%) | A (A=Expression % greater than 100%)
2 | NC1=C(c2cncc(-c3ccc(O)c(O)c3)n2)C(=O)CN1CC1CCCC1 [Compound 18] | A (A=Exchange % greater than 50%) | A (A=Exchange % greater than 50%) | A (A=Expression % greater than 100%) | A (A=Expression % greater than 100%)
3 | COc1cc(-c2nccc(C3=C(N)N(CC4CCCC4)CC3=O)n2)ccc1O [Compound 105] | A (A=Exchange % greater than 50%) | A (A=Exchange % greater than 50%) | A (A=Expression % greater than 100%) | A (A=Expression % greater than 100%)
